These are literature values, as cited in US20250313559A1 (Bayer Aktiengesellschaft, priority 2024, published 2025).

Entries after “also recorded” stand apart in the source; their conditions may differ.

Data set [1] deals with patients with HF and LVEF 35%. The settings on record: EMPHASIS-HF; HFrEF; cited from earlier work.
In the next data set the test system is patients with HFpEF. The settings on record: TOPCAT, global trial; cited from earlier work.
Data set [2] relates to patients with HF and LVEF 45%. The settings on record: TOPCAT; HFmrEF/HFpEF; cited from earlier work.
For data set [3], the system named is patients with HF and left ventricular ejection fraction (LVEF) 35%. The settings on record: RALES; HFrEF; cited from earlier work.

For `COC(=O)[C@@H]1CC2=CC(=O)CC[C@]2(C)[C@@]23O[C@@H]2C[C@@]2(C)[C@@H](CC[C@@]24CCC(=O)O4)[C@H]13` [eplerenone], the “Risk of death and hospitalization” value in data set [1] was “decrease the risk of death and hospitalization”.

As to `CC(=O)S[C@@H]1CC2=CC(=O)CC[C@]2(C)[C@H]2CC[C@@]3(C)[C@@H](CC[C@@]34CCC(=O)O4)[C@H]12` [spironolactone], the primary composite endpoint entry in the data set with patients with HFpEF was “did not reduce the primary endpoint; also recorded: did not demonstrate benefit”. Also, the “Primary endpoint (first heart failure hospitalization or cardiovascular death)” value in data set [2] was “did not reduce the primary endpoint; also recorded: did not improve the primary outcome”. Moreover, the “Risk of death and hospitalization” value in data set [3] was “decrease the risk of death and hospitalization”.
